Test results from patent EP4470536A1, “COMPOUND FOR USE IN TREATING FIBRODYSPLASIA OSSIFICANS PROGRESSIVA (FOP)” (Queen's University At Kingston, priority 2023, dated 2024).

Assays:
[1] = system: growth plates of juvenile FVB mice; assay: Long bone growth and growth plate toxicity in juvenile mice; conditions: for Mean femur length (cm) / Mean tibia length (cm): oral gavage, P14-P41, juvenile FVB mice; for Mean modified Crural index: ratio of tibia over femur length
Excerpt: A preclinical study was used to evaluate toxicity of various doses of compound 1 versus palovarotene on the growth plates of juvenile FVB mice following once daily (QD) or twice (BID) administration by oral gavage, over the juvenile development period, for 4 weeks (postnatal days 14-42 (P14-P42)). […] Resultant DICOM files were rendered in the RadiAnt viewer to obtain long bone measurements using the program's measuring tool (Figure 8A).

RAR = RAR transcriptional activation assay (RARE-luc MCF-7 cells); format: cell-based; conditions: 0.1 nM to 10 µM, 24 hours of treatment; Figure 5
Excerpt: This retinoid transcriptional activity assay measures the ability of a test compound to induce expression of a RA-sensitive reporter construct. This assay utilizes MCF-7 cells stably transduced with a gene construct comprising 4 tandem RA-response elements linked to a promoter driving transcriptional expression of the firefly luciferase encoding mRNA (RARE-luc). This construct serves as a sensitive reporter of retinoid-like activity.
RARE-luc transduced MCF-7 cells were maintained in a RPMI-1640 medium containing 10% FBS. Cells were grown in 96-well plates, and treated with the test compound diluted in DMSO in duplicate at 0.1 nM, 1 nM, 10 nM, 100 nM, 1 µM and 10 µM final concentrations. As a positive control for reporter activation, cells were also treated with RA diluted in DMSO at the same concentrations. DMSO treatment alone served as a negative control. After 24 hours of treatment, cells were harvested lysis buffer (Molecular Devices, San Jose, USA) and luciferase activity in cell lysates were read using a luminometer.

ectopic bone formation = assay: Genetic mouse model of FOP, pinch injury-induced ectopic bone formation, micro-CT; format: in vivo, Acvr1^(cR206H/+);Pdgfra-Cre+ mice; conditions: for Mean ectopic bone volume D14 (mm^3) / Mean ectopic bone volume D14 [percent change from vehicle]: day 14; for Mean ectopic bone volume D22 (mm^3) / Mean ectopic bone volume D22 [percent change from vehicle]: day 22
Excerpt: Acvr1^(cR206H/+) mice were obtained from the International Fibrodysplasia Ossificans Progressiva Association (IFOPA, North Kansas City, MO, USA). These animals harbour a Cre recombinase-inducible Acvr1 transgenic allele, which causes a switch from wild-type mouse ACVR1 protein expression to that of a chimeric mouse/human protein containing the R206H mutation seen in >95% of FOP patients. These animals were intercrossed with Pdgfra-Cre expressing mice (C57BL/6-Tg(PDGFRA-cre)1Clc/J mice, available through The Jackson Laboratory, Bar Harbor, ME, USA) which activates Cre recombination in fibro-adipogenic precursors, currently believed to be the cells of origin for FOP (Lees-Shepard, J.B., et al (2018) Nat Commun 9, 471.). Resulting study animals (ACVR1^(R206H/+);Pdgfra-Cre+) are susceptible to injury-induced ectopic bone formation. These animals were subjected to a bilateral gastrocnemius pinch procedure under anaesthesia, whereby a Halsted-mosquito hemostat (product#13008-12, Fine Science Tools Inc., North Vancouver, BC, Canada) is used to compress the gastrocnemius muscle, at its widest part, to approximately 2mm for 5s, and then released. This injury elicits robust ectopic bone formation within 10-14 days (for description of procedure see, Lyu, H., et al. (2021). Biomedicines 9(6).). […] Micro-CT imaging was performed on days 14 (under anaesthesia) and at study termination (day 22), as outlined above in Example 7. Sites of ectopic bone formation in the area of the injury were volumetrically quantified using Class stratification in Imalytics Preclinical software (version 3.0.2.3, Gremse-IT GmbH, Aachen, Germany) from DICOM renderings. Using this model, the utility of compound 1 in inhibiting bone formation in a genetic mouse model of FOP was illustrated (see Figure 11 and Table 3 below). Table 3. Effect of different doses of compound 1 on mean ectopic bone volume at 14 and 22 days following initiation of treatment

Compound: CC(C)(C)c1cccc(-c2cc3cc(/C=C/C(=O)O)ccc3[nH]2)c1 [Compound 1, (E)-3-(2-(3-(tert-butyl)phenyl)-1H-indol-5-yl)acrylic acid]
- Mean femur length (cm) ([1]; 3mg/kg BID): 1.38 ± 0.03 cm
- Mean tibia length (cm) ([1]; 3mg/kg BID): 1.69 ± 0.04 cm
- Mean modified Crural index ([1]; 3mg/kg BID): 1.23 ± 0.03
- Mean femur length (cm) ([1]; 6mg/kg BID): 1.33 ± 0.11 cm
- Mean tibia length (cm) ([1]; 6mg/kg BID): 1.53 ± 0.05 cm
- Mean modified Crural index ([1]; 6mg/kg BID): 1.15 ± 0.05
- Mean femur length (cm) ([1]; 10mg/kg BID): 1.34 ± 0.06 cm
- Mean tibia length (cm) ([1]; 10mg/kg BID): 1.70 ± 0.04 cm
- Mean modified Crural index ([1]; 10mg/kg BID): 1.27 ± 0.06
- Mean femur length (cm) ([1]; 18mg/kg QD): 1.10 ± 0.09 cm
- Mean tibia length (cm) ([1]; 18mg/kg QD): 1.54 ± 0.07 cm
- Mean modified Crural index ([1]; 18mg/kg QD): 1.40 ± 0.06
- disturbances to the growth of long bones and microarchitecture of the growth plates ([1]; at doses at least equally efficacious as palovarotene, Figures 8A, 8B, 9): not observed
- luciferase activity (RAR): did not induce luciferase activity significantly
- Mean ectopic bone volume D14 (mm^3) (ectopic bone formation; 2mg/kg BID): 2.92 ± 3.76 mm^3
- Mean ectopic bone volume D14 [percent change from vehicle] (ectopic bone formation; 2mg/kg BID): -76.9%
- Mean ectopic bone volume D22 (mm^3) (ectopic bone formation; 2mg/kg BID): 2.62 ± 4.36 mm^3
- Mean ectopic bone volume D22 [percent change from vehicle] (ectopic bone formation; 2mg/kg BID): -77.9%
- Mean ectopic bone volume D14 (mm^3) (ectopic bone formation; 4mg/kg BID): 0.20 ± 0.47 mm^3
- Mean ectopic bone volume D14 [percent change from vehicle] (ectopic bone formation; 4mg/kg BID): -98.5%
- Mean ectopic bone volume D22 (mm^3) (ectopic bone formation; 4mg/kg BID): 0.00 ± 0.00 mm^3
- Mean ectopic bone volume D22 [percent change from vehicle] (ectopic bone formation; 4mg/kg BID): -100%
- Mean ectopic bone volume D14 (mm^3) (ectopic bone formation; 7.5mg/kg BID): 0.31 ± 0.45 mm^3
- Mean ectopic bone volume D14 [percent change from vehicle] (ectopic bone formation; 7.5mg/kg BID): -97.5%
- Mean ectopic bone volume D22 (mm^3) (ectopic bone formation; 7.5mg/kg BID): 0.07 ± 0.18 mm^3
- Mean ectopic bone volume D22 [percent change from vehicle] (ectopic bone formation; 7.5mg/kg BID): -99.4%
- Mean ectopic bone volume D14 (mm^3) (ectopic bone formation; 10mg/kg BID): 1.28 ± 2.23 mm^3
- Mean ectopic bone volume D14 [percent change from vehicle] (ectopic bone formation; 10mg/kg BID): -89.9%
- Mean ectopic bone volume D22 (mm^3) (ectopic bone formation; 10mg/kg BID): 1.40 ± 2.65 mm^3
- Mean ectopic bone volume D22 [percent change from vehicle] (ectopic bone formation; 10mg/kg BID): -88.2%
